Assay results published in PubChem BioAssay AID248 (DTP/NCI, 2004).
“And” between values parts separate entries of the source, which are not always exact repeats. Equal entries are not always repeated. Inconclusive results and toxic doses are left out. Rule as the data show it: active = T/C of 150% or more; inactive = T/C below 125%.

Tested on: L1210 leukemia ip in BDF1 mice, survival T/C
Assay: NCI In Vivo Anticancer Drug Screen. Data for tumor model L1210 Leukemia (intraperitoneal) in B6D2F1 (BDF1) mice
Settings: endpoint: mean survival time, higher = longer survival
Summary of the method: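 Transplantable tumor model; survival measured in treated vs vehicle control mice. Value = treated/control.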

[1] = dose: 100.0 mg/kg/injection, schedule: Q01DX001 (ip), vehicle: saline with Tween-80
[2] = dose: 200.0 mg/kg/injection, schedule: Q01DX001 (ip), vehicle: saline with Tween-80
[3] = dose: 100.0 mg/kg/injection, schedule: Q04DX002 (ip), vehicle: Klucel (hydroxypropylcellulose) (HPC)
[4] = dose: 200.0 mg/kg/injection, schedule: Q04DX002 (ip), vehicle: Klucel (hydroxypropylcellulose) (HPC)
[5] = dose: 400.0 mg/kg/injection, schedule: Q04DX002 (ip), vehicle: Klucel (hydroxypropylcellulose) (HPC)
[6] = dose: 50.0 mg/kg/injection, schedule: Q01DX009 (ip), vehicle: saline with Tween-80
[7] = dose: 100.0 mg/kg/injection, schedule: Q01DX009 (ip), vehicle: saline with Tween-80
[8] = dose: 200.0 mg/kg/injection, schedule: Q01DX009 (ip), vehicle: saline with Tween-80
[9] = dose: 400.0 mg/kg/injection, schedule: Q01DX009 (ip), vehicle: saline with Tween-80
[10] = dose: 100.0 mg/kg/injection, schedule: Q01DX001 (ip), vehicle: saline
[11] = dose: 200.0 mg/kg/injection, schedule: Q01DX001 (ip), vehicle: saline
[12] = dose: 400.0 mg/kg/injection, schedule: Q01DX001 (ip), vehicle: saline
[13] = dose: 25.0 mg/kg/injection, schedule: Q01DX009 (ip), vehicle: saline

Measured: T/C

O=C(COc1ccc(Cl)cc1Cl)Nc1cccc2c1C(=O)c1ccccc1C2=O
inactive: dose: 100.0 mg/kg/injection, schedule: Q04DX002 (ip), vehicle: saline + alcohol 96 % of control | dose: 200.0 mg/kg/injection, schedule: Q04DX002 (ip), vehicle: saline + alcohol 100 % of control | dose: 400.0 mg/kg/injection, schedule: Q04DX002 (ip), vehicle: saline + alcohol 96 % of control

CCCCCCCC(C(C)=O)C(=O)OCC (stereo unspecified)
inactive: [1] 95 % of control | [2] 103 % of control | dose: 400.0 mg/kg/injection, schedule: Q01DX001 (ip), vehicle: saline with Tween-80 95 % of control

O=C(On1c(-c2ccccc2)cc2ccccc21)c1ccc([N+](=O)[O-])cc1
inactive: [3] 104 % of control | [4] 111 % of control | [5] 96 % of control

O=S(NOCCCCONS(=O)c1ccccc1)c1ccccc1 (stereo unspecified)
inactive: dose: 25.0 mg/kg/injection, schedule: Q01DX001 (ip), vehicle: saline with Tween-80 100 % of control | dose: 25.0 mg/kg/injection, schedule: Q04DX003 (ip), vehicle: saline with Tween-80 93 % of control | dose: 50.0 mg/kg/injection, schedule: Q01DX001 (ip), vehicle: saline with Tween-80 95 % of control | [6] 94 % of control and 102 % of control | dose: 50.0 mg/kg/injection, schedule: Q04DX003 (ip), vehicle: saline with Tween-80 96 % of control | [1] 95 % of control and 90 % of control | [7] 95 % of control and 96 % of control | dose: 100.0 mg/kg/injection, schedule: Q04DX002 (ip), vehicle: saline with Tween-80 98 % of control and 89 % of control | dose: 100.0 mg/kg/injection, schedule: Q04DX003 (ip), vehicle: saline with Tween-80 89 % of control | [2] 90 % of control | [8] 96 % of control and 92 % of control | dose: 200.0 mg/kg/injection, schedule: Q04DX002 (ip), vehicle: saline with Tween-80 100 % of control and 91 % of control | dose: 200.0 mg/kg/injection, schedule: Q04DX003 (ip), vehicle: saline with Tween-80 94 % of control | [9] 90 % of control | dose: 400.0 mg/kg/injection, schedule: Q04DX002 (ip), vehicle: saline with Tween-80 102 % of control

Ic1ccc(C2CC(c3ccccc3)=NN2c2ccccc2)cc1 (stereo unspecified)
inactive: [7] 96 % of control | [8] 92 % of control | [9] 91 % of control

O=[N+]([O-])/C=C/c1ccccc1Br
inactive: dose: 18.75 mg/kg/injection, schedule: Q04DX003 (ip), vehicle: Klucel (hydroxypropylcellulose) (HPC) 96 % of control | dose: 37.5 mg/kg/injection, schedule: Q04DX003 (ip), vehicle: Klucel (hydroxypropylcellulose) (HPC) 102 % of control | dose: 75.0 mg/kg/injection, schedule: Q04DX003 (ip), vehicle: Klucel (hydroxypropylcellulose) (HPC) 104 % of control

c1ccc(Cc2nn[nH]n2)cc1
inactive: [3] 105 % of control | [4] 101 % of control | [5] 105 % of control

O=[N+]([O-])c1ccccc1S(=O)(=O)C1CC1c1ccccc1 (stereo unspecified)
inactive: [10] 109 % of control | [11] 102 % of control | [12] 103 % of control

CC(=O)OC(CC(=O)CC(O)(C(F)(F)F)C(F)(F)F)(C(F)(F)F)C(F)(F)F
inactive: dose: 6.25 mg/kg/injection, schedule: Q01DX009 (ip), vehicle: saline 94 % of control | dose: 12.5 mg/kg/injection, schedule: Q01DX009 (ip), vehicle: saline 91 % of control | [13] 88 % of control

O=C(Nc1cccc(C2=NCCN2)c1)c1ccc(C(=O)Nc2cccc(C3=NCCN3)c2)c(Cl)c1
inactive: dose: 0.75 mg/kg/injection, schedule: Q01DX Z (ip), vehicle: carboxymethylcellulose (CMC) 101 % of control | dose: 1.0 mg/kg/injection, schedule: Q01DX009 (ip), vehicle: saline 97 % of control | dose: 1.5 mg/kg/injection, schedule: Q01DX Z (ip), vehicle: carboxymethylcellulose (CMC) 95 % of control and 104 % of control | dose: 2.0 mg/kg/injection, schedule: Q01DX009 (ip), vehicle: saline 97 % of control | dose: 3.0 mg/kg/injection, schedule: Q01DX Z (ip), vehicle: carboxymethylcellulose (CMC) 96 % of control and 98 % of control | dose: 4.0 mg/kg/injection, schedule: Q01DX009 (ip), vehicle: saline 95 % of control | dose: 6.0 mg/kg/injection, schedule: Q01DX Z (ip), vehicle: carboxymethylcellulose (CMC) 93 % of control and 96 % of control | dose: 8.0 mg/kg/injection, schedule: Q01DX009 (ip), vehicle: saline 94 % of control | dose: 9.0 mg/kg/injection, schedule: Q01DX Z (ip), vehicle: methylcellulose (MC) 93 % of control | dose: 12.0 mg/kg/injection, schedule: Q01DX Z (ip), vehicle: carboxymethylcellulose (CMC) 95 % of control | dose: 12.0 mg/kg/injection, schedule: Q01DX Z (ip), vehicle: methylcellulose (MC) 95 % of control | dose: 18.0 mg/kg/injection, schedule: Q01DX Z (ip), vehicle: methylcellulose (MC) 109 % of control | dose: 27.0 mg/kg/injection, schedule: Q01DX Z (ip), vehicle: methylcellulose (MC) 106 % of control

N#CC(C#N)=Cc1ccc(O)cc1
inactive: dose: 5.0 mg/kg/injection, schedule: Q01DX001 (ip), vehicle: saline 105 % of control | dose: 10.0 mg/kg/injection, schedule: Q01DX001 (ip), vehicle: saline 105 % of control | dose: 20.0 mg/kg/injection, schedule: Q01DX001 (ip), vehicle: saline 92 % of control | dose: 40.0 mg/kg/injection, schedule: Q01DX001 (ip), vehicle: saline 103 % of control | dose: 80.0 mg/kg/injection, schedule: Q01DX001 (ip), vehicle: saline 97 % of control

O=COC(CCCc1ccccc1)c1ccc2c(c1)OCO2 (stereo unspecified)
inactive: dose: 100.0 mg/kg/injection, schedule: Q04DX003 (ip), vehicle: other 93 % of control | dose: 200.0 mg/kg/injection, schedule: Q04DX003 (ip), vehicle: other 93 % of control | dose: 400.0 mg/kg/injection, schedule: Q04DX003 (ip), vehicle: other 98 % of control

COc1cc(C(=O)COC(C)=O)cc(OC)c1OC(C)=O
inactive: [10] 88 % of control | [11] 89 % of control | [12] 89 % of control

C/C=C/C1CC2CC(C1C)C2(C)C (stereo unspecified)
inactive: [6] 97 % of control | [7] 97 % of control | [8] 101 % of control

CCc1ccc(C(=O)NN)cc1
inactive: [13] 95 % of control | dose: 50.0 mg/kg/injection, schedule: Q01DX009 (ip), vehicle: saline 105 % of control and 113 % of control | dose: 200.0 mg/kg/injection, schedule: Q01DX009 (ip), vehicle: saline 117 % of control | dose: 400.0 mg/kg/injection, schedule: Q01DX009 (ip), vehicle: saline 123 % of control

N#CCCCOc1cccc(N)c1
inactive: [10] 101 % of control | [11] 101 % of control | [12] 101 % of control

CCC[CH2][Ge]([CH2]CCC)([CH2]CCC)[N]1C(=O)c2ccccc2C1=O
inactive: dose: 50.0 mg/kg/injection, schedule: Q01DX001 (ip), vehicle: carboxymethylcellulose (CMC) 102 % of control | dose: 50.0 mg/kg/injection, schedule: Q01DX001 (ip), vehicle: saline 100 % of control | dose: 100.0 mg/kg/injection, schedule: Q01DX001 (ip), vehicle: carboxymethylcellulose (CMC) 96 % of control | [10] 102 % of control | dose: 200.0 mg/kg/injection, schedule: Q01DX001 (ip), vehicle: carboxymethylcellulose (CMC) 103 % of control | [11] 96 % of control | dose: 400.0 mg/kg/injection, schedule: Q01DX001 (ip), vehicle: carboxymethylcellulose (CMC) 105 % of control | [12] 108 % of control
